Test results: PubChem BioAssay (NCI)
Values joined by “and” are separate entries in the source; they are usually repeats but may differ in a detail not shown here. Identical values can stand only once.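 Test compounds were applied to cells in 96-well plates for 48 hours at 5 doses. GI50 marks 50% less growth. The concentration for full growth arrest is given as TGI.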

How the values were obtained:
Assay in all cases: NCI tumour cell line growth inhibition, 48 h
CCRF-CEM leukemia = test system: CCRF-CEM leukemia
HL-60(TB) leukemia = test system: HL-60(TB) leukemia
HOP-92 NSCLC = test system: HOP-92 NSCLC
IGROV1 ovarian = test system: IGROV1 ovarian
MDA-MB-435 = test system: MDA-MB-435
NCI-H226 lung = test system: NCI-H226 lung
OVCAR-5 ovarian = test system: OVCAR-5 ovarian
SK-MEL-28 melanoma = test system: SK-MEL-28 melanoma
SN12C renal = test system: SN12C renal
UO-31 renal = test system: UO-31 renal

Compound	GI50 (CCRF-CEM leukemia) [µM]	TGI (CCRF-CEM leukemia)	GI50 (HL-60(TB) leukemia)	TGI (HL-60(TB) leukemia)	GI50 (HOP-92 NSCLC) [µM]	TGI (HOP-92 NSCLC)	GI50 (IGROV1 ovarian)	TGI (IGROV1 ovarian)	GI50 (MDA-MB-435) [µM]	TGI (MDA-MB-435)	GI50 (NCI-H226 lung)	TGI (NCI-H226 lung)	GI50 (OVCAR-5 ovarian) [µM]	TGI (OVCAR-5 ovarian) [µM]	GI50 (SK-MEL-28 melanoma)	TGI (SK-MEL-28 melanoma)	GI50 (SN12C renal) [µM]	TGI (SN12C renal)	GI50 (UO-31 renal) [µM]	TGI (UO-31 renal)
COC1=CC(c2ccc[nH]2)=N/C1=C\c1[nH]c(C)c(C(=O)CCC(=O)Oc2ccc3c(c2)CCC2C3CC[C@]3(C)C(=O)CC[C@@H]23)c1C (some centres not stated)	0.527	> 100 µM	50.2 µM	> 100 µM	2.09	16.5 µM	8.3 µM	> 100 µM	7.7	> 100 µM	10.9 µM	> 58.6 µM	7.88	> 81.6	> 70.9 µM	> 100 µM	5.23	> 100 µM	3.95	30 µM
Cc1cc(N(CCCl)CCCl)ccc1C=Nc1cccnc1	6.75	> 100 µM	1.58 µM	30 µM	13.9	68.2 µM	4.97 µM	> 84.1 µM	37.8	> 100 µM	0.306 µM	1.79 µM	1.86	15.9	> 77.8 µM	> 100 µM	10.6	> 100 µM	12.4	> 86.7 µM
COC1/C=C/O[C@@]2(C)Oc3c(C)c(O)c4c(O)c(cc(O)c4c3C2=O)NC(=O)/C(C)=C\C=C\[C@H](C)C(O)[C@@H](C)[C@@H](O)[C@@H](C)[C@H](OC(C)=O)[C@@H]1C (some centres not stated)	0.504	4.07 µM and 32.6 µM	6.07 µM and 5.19 µM	27.4 µM and 18 µM	12	24.3 µM and 23.6 µM	16 µM	29.5 µM and 56.3 µM	17.2	31.6 µM and 40.4 µM	39.6 µM and 59.3 µM	179 µM		80.1		52 µM and 57.3 µM	11.9	24.6 µM and 33.9 µM	12	24.4 µM and 96.9 µM
COc1ccc2c(c1)C(=O)c1c-2c(NCCCN(C)C)nc2ccccc12	1.48	3.47 µM	2.63 µM	12.3 µM	1.15	8.6 µM	6.99 µM	19.9 µM	4.05	15.4 µM	11.6 µM	24 µM	10.2	21.9	0.524 µM	1.94 µM	2.26	6.84 µM	4.91	18.4 µM
Cc1ccc(NS(=O)(=O)c2ccc(-c3cnc(C4CC4)o3)cc2)cc1	3.31	34.6 µM	2.47 µM	9.71 µM	2.14	13.2 µM	3.78 µM	17.3 µM	0.879	3.94 µM	7.37 µM	24.5 µM	9.28	22.6	6.22 µM	20.1 µM	4.1	17.2 µM	3.49	16.1 µM
CN(C)c1c(Cl)c(=O)oc2c1ccc1nc(-c3ccccc3)sc12		> 100 µM		> 100 µM		> 100 µM		> 100 µM		> 100 µM		> 100 µM		> 100		> 100 µM		> 100 µM		> 100 µM
COCCNCC(O)Cn1c2ccc(Cl)cc2c2cc(Cl)ccc21 (configuration not stated)	1.92	4.25 µM	2.05 µM	4.51 µM	1.57	5.17 µM			1.7	3.19 µM	2.25 µM	5.92 µM	2.15	5.23	1.73 µM	3.25 µM	1.94	4.46 µM	1.75	4.17 µM
CS(=O)(=O)c1nccc(-c2c(-c3cccc(OCc4ccc(F)cc4)c3)nc3sccn23)n1	8.73	> 100 µM	3.43 µM	> 29.3 µM	11.1	> 100 µM	11.2 µM	> 100 µM	30.3	> 100 µM	21.6 µM	> 100 µM	> 100	> 100	23.8 µM	> 100 µM	> 56.6	> 100 µM	2.19	5.57 µM
Cc1c(Cl)cccc1NC(=O)CC1Sc2ccccc2NC1=O (configuration not stated)		> 100 µM		54.2 µM and 49.3 µM		42.9 µM and 64 µM	20 µM and 45.1 µM	65 µM and > 100 µM		9.79 µM		41.7 µM and 54.8 µM		> 100	27.4 µM and 55 µM	> 100 µM		65.6 µM and > 100 µM		49.2 µM and 54.8 µM
CCN(CC)c1ccc(NC(C(=O)c2ccccc2)c2ccccc2)cc1 (configuration not stated)	2.29	13.5 µM	3.24 µM	20.9 µM	2.22	8.21 µM	4.31 µM	18.1 µM	2.25	6.05 µM	1.76 µM	3.53 µM	2.24	5.26	1.81 µM	3.6 µM			1.9	4.18 µM
COc1ccccc1-c1cc2c3c(nc4ccccc42)C(=O)c2cccnc2-c3n1	4.94	> 100 µM	> 100 µM	> 100 µM	19.1	> 100 µM	3.78 µM	18.1 µM	12.5	33.3 µM	15.3 µM	33 µM	15	34	18.4 µM	34.7 µM	14.5	30.1 µM	11.1	23.3 µM
CCC(=O)Sc1ccccc1C(=O)Nc1ccc(Cl)cc1	4.22	> 100 µM	3.65 µM	19.8 µM	2.52	9.67 µM	13.7 µM	> 100 µM	6.92	39.9 µM	10.4 µM	54.8 µM	15.9	33.2	9.33 µM	57.7 µM	4.26	41.8 µM	6.53	> 100 µM
CO/N=C(\c1ccccc1)c1cnn(-c2ccccc2)c1N	> 25	> 25 µM	> 25 µM	> 25 µM	> 12.4	> 25 µM	> 25 µM	> 25 µM	> 25	> 25 µM	> 25 µM	> 25 µM	> 25	> 25	> 25 µM	> 25 µM	> 25	> 25 µM	> 25	> 25 µM
O=C1Nc2ccc(Cl)cc2/C1=C\c1c(-c2ccc(F)cc2)nc2ccccn12	2.31	7.24 µM	1.88 µM	4.48 µM	1.86	7.1 µM	3.06 µM	8.58 µM	1.99	5.03 µM	2.07 µM	5.21 µM	2.21	6.72	3.33 µM	15.3 µM	2.88	10.8 µM	2.1	5.61 µM
COc1ccc(-c2cc3cccc(OC)c3c(=O)o2)cc1OC	30.9	> 100 µM	76.2 µM	> 100 µM	37.2	> 100 µM	> 100 µM	> 100 µM	3.22	> 100 µM	2.35 µM	86.5 µM	85.5	> 100	44.4 µM	> 100 µM	19.7	> 100 µM	95.4	> 100 µM
Nc1ccccc1C#C/C=C\C#Cc1ccc(F)cc1F	0.444	10.9 µM	21.8 µM	> 100 µM	18.3	59.7 µM	12.7 µM	40.7 µM	2.38	6.19 µM	17.3 µM	35.8 µM	14.8	29.6	27 µM	90.1 µM	12.3	27.7 µM	13.1	33 µM
C=CC1CC12C(=O)C1OC2(C)C2C(=O)c3ccccc3C(=O)C12 (configuration not stated)	39.2	> 93.9 µM	0.691 µM	2.59 µM	> 77.6	> 100 µM	> 69.3 µM	> 100 µM	> 40.1	> 54.4 µM	> 76.2 µM	> 100 µM	> 54.7	> 88.5	> 71 µM	> 100 µM	> 56.3	> 100 µM	> 87.3	> 100 µM
COc1ccc2c(c1)Oc1nc(N)c(C#N)c(N)c1C2Sc1ccc(SC)cc1 (configuration not stated)			1.99 µM	5.49 µM	1.94	3.56 µM	1.73 µM	3.78 µM	1.74	3.23 µM	1.92 µM	3.58 µM	1.8	3.55	1.71 µM	3.15 µM	1.64	3.06 µM	1.51	2.84 µM
CC1OCC2OC(C)OC(C3C4=C(CC(C)(C)CC4=O)OC4=C3C(=O)CC(C)(C)C4)C2O1 (configuration not stated)		> 100 µM		> 100 µM		> 100 µM				> 100 µM		> 100 µM		> 100		> 100 µM		> 100 µM		> 100 µM
c1ccc2c(c1)O[As](O[As]1Oc3ccccc3O1)O2	0.434	10.8 µM	1.49 µM	3.92 µM	0.86	5.31 µM	1.56 µM	10.5 µM	2.8	13.9 µM	3.61 µM	19.7 µM	5.01	22.2	3.04 µM	15.1 µM	3.02	14.9 µM	1.97	11.3 µM
CCCOC(=O)N[C@H]1CCc2c(Br)c(OC)c(OC)c(OC)c2-c2ccc(SC)c(=O)cc21	0.0274	> 51.2 µM	0.0245 µM	0.0784 µM	0.0411	6.28 µM	0.0377 µM	> 46.2 µM	< 0.01	0.0189 µM	0.0341 µM	6.71 µM	0.0501	34.5	2.83 µM	23.2 µM	0.0437	17.3 µM	0.103	21.9 µM
CCCC[C@@H]1NC(=O)[C@H](CCCCN)NC(=O)[C@H](CCCNC(=N)N)NC(=O)[C@H](CC(C)C)NC(=O)[C@@H](NC(=O)[C@H](Cc2cccc(Cl)c2)NC(=O)[C@@H]2CCCN2C(=O)[C@@H](NC(C)=O)C(C)C)CCSSC[C@@H](C(=O)N[C@@H](CCCCN)C(=O)N2CCC[C@H]2C(=O)N2CCC[C@H]2C(=O)N[C@@H](CCC(=O)O)C(N)=O)NC(=O)[C@H](Cc2ccccc2)NC(=O)[C@H](CO)NC(=O)[C@H](C)NC(=O)[C@@H]2CCCN2C1=O	> 50	> 50 µM	> 50 µM	> 50 µM	> 50	> 50 µM	> 50 µM	> 50 µM	> 50	> 50 µM	> 50 µM	> 50 µM	> 50	> 50	> 50 µM	> 50 µM	> 50	> 50 µM	> 50	> 50 µM
COc1cc(OC)c(-c2cc(=O)c3c(OC)c(OC)c(OC)c(OC)c3o2)cc1OC		> 100 µM		> 64.6 µM		59 µM		> 100 µM		> 100 µM		> 100 µM		> 100		> 100 µM		> 100 µM		> 100 µM
COC(=O)C(=O)C(C(=O)C(=O)Nc1ccccc1C(=O)OC)c1nc2ccc(C(=O)c3ccccc3)cc2[nH]c1=O (configuration not stated)				> 100 µM		> 100 µM		> 100 µM		> 100 µM		> 100 µM		> 100		> 100 µM		> 100 µM		> 100 µM
COc1ccc(-c2cc3c4c(nc5ccccc5c4c2)CC(c2cc(OC)c(OC)c(OC)c2)O3)cc1 (configuration not stated)	> 100	> 100 µM	> 100 µM	> 100 µM	1.62	4.71 µM	2.66 µM	12.6 µM	2.99	13.7 µM	1.71 µM	3.89 µM			2.36 µM	6.62 µM	2.75	> 100 µM		
Cc1oc2ccccc2c(=O)c1Cn1nnc2ccccc21		> 100 µM		> 100 µM		87.4 µM				> 100 µM		> 100 µM		> 100		> 100 µM		> 100 µM		> 100 µM
